Target: T1, oestrogen receptor (ER) (Homo sapiens, UniProt P03372)
T1 construct: These MVLN cells express, along with the functional oestrogen receptor (ER), a reporter construct; endogenous in cells; host or cells: MVLN cells (MCF7 derivative carrying a luciferase reporter construct)
T1 sequence (P03372 1-595): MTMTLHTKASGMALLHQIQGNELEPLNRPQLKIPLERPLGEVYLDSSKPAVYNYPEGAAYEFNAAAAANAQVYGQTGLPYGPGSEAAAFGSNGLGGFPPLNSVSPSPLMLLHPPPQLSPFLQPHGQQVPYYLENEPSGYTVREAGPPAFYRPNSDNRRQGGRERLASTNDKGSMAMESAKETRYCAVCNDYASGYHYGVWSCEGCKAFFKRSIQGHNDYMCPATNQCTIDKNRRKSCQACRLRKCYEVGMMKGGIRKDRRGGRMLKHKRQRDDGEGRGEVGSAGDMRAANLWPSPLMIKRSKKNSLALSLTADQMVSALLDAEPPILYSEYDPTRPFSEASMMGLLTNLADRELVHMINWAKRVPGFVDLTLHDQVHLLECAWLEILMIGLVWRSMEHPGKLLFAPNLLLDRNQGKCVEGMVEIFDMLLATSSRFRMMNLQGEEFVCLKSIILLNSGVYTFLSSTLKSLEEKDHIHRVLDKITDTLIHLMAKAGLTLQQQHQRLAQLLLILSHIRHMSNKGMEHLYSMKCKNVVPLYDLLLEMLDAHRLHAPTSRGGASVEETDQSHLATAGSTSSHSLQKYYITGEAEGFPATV
Assay: Anti-oestrogenic action in MVLN cells (inhibition of estradiol-induced luciferase)
Assay type: cell-based
Details: inhibition of estradiol-induced luciferase signal, value of Ex. 44 is a mean value, read-out: Antioestrogenic action in vitro: MVLN transactivation antagonism IC50
Description: The anti-oestrogenic action of the claimed pharmacological compounds was investigated in so-called MVLN cells in vitro. MVLN cells are derivatives of the hormone-responsive MCF7 breast cancer cells known by a person skilled in the art. These MVLN cells express, along with the functional oestrogen receptor (ER), a reporter construct, which under ER-activation expresses luciferase. Determination of the activity of the induced luciferase permits a direct conclusion on the oestrogen properties of substances. To investigate the anti-oestrogenic properties of the pharmacological compounds, they were investigated in the presence of oestrogen for their potential for inhibiting the luciferase signal induced by estradiol. The claimed pharmacological test substances were investigated in MVLN cells for their anti-oestrogenic potential, as described (see Table 2).

Row | Structure (SMILES) | IC50 [nM]
1 | CN(CCCCCCC1=C(c2ccc(F)c(F)c2)CCCc2cc(O)ccc21)CCC[S+]([O-])CCC(F)(F)F (centres unmarked) [Example 21, 8-(3,4-Difluorophenyl)-9-[6-(methyl{3-[(3,3,3-trifluoropropyl)sulphinyl]propyl}amino)hexyl]-6,7-dihydro-5H-benzo[7]annulen-3-ol] | 48
2 | CN(CCCCCCC1=C(c2ccc(F)cc2F)CCCc2cc(O)ccc21)CCCCCS(=O)(=O)CCC(F)(F)F [Example 133, 8-(2,4-Difluorophenyl)-9-[6-(methyl{5-[(3,3,3-trifluoropropyl)sulphonyl]pentyl}amino)hexyl]-6,7-dihydro-5H-benzo[7]annulen-3-ol] | 7
3 | CN(CCCCCCC1=C(c2ccc(F)cc2)CCCc2c1ccc(O)c2F)CCCCS(=O)(=O)CCC(F)(F)F [Example 50, 4-Fluoro-8-(4-fluorophenyl)-9-[6-(methyl{4-[(3,3,3-trifluoropropyl)sulphonyl]butyl}amino)hexyl]-6,7-dihydro-5H-benzo[7]annulen-3-ol] | 16
4 | CN(CCCCCCC1=C(c2cc(F)cc(F)c2)CCCc2cc(O)ccc21)CCCCS(=O)(=O)CCCC(F)(F)C(F)(F)F [Example 9, 8-(3,5-Difluorophenyl)-9-[6-(methyl{4-[(4,4,5,5,5-pentafluoropentyl)sulphonyl]butyl}amino)hexyl]-6,7-dihydro-5H-benzo[7]annulen-3-ol] | 17
5 | CN(CCCCCCC1=C(c2ccc(F)c(F)c2)CCCc2cc(O)ccc21)CCCS(=O)(=O)CCCC(F)(F)C(F)(F)F [Example 17, 8-(3,4-Difluorophenyl)-9-[6-(methyl{3-[(4,4,5,5,5-pentafluoropentyl)sulphonyl]propyl}amino)hexyl]-6,7-dihydro-5H-benzo[7]annulen-3-ol] | 46
6 | O=S(=O)(CCCN(CCO)CCCCCCC1=C(c2ccc(F)cc2)CCCc2cc(O)ccc21)CCC(F)(C(F)(F)F)C(F)(F)F [Example 108, 8-(4-Fluorophenyl)-9-{6-[(2-hydroxyethyl)(3-{[3,4,4,4-tetrafluoro-3-(trifluoromethyl)butyl]sulphonyl}propyl)amino]hexyl}-6,7-dihydro-5H-benzo[7]annulen-3-ol] | 69
7 | CN(CCCCCCC1=C(c2ccc(F)c(F)c2)CCCc2cc(O)ccc21)CCCS(=O)(=O)CCC(F)(F)C(F)(F)F [Example 19, 8-(3,4-Difluorophenyl)-9-[6-(methyl{3-[(3,3,4,4,4-pentafluorobutyl)sulphonyl]propyl}amino)hexyl]-6,7-dihydro-5H-benzo[7]annulen-3-ol] | 62
8 | CN(CCCCCCC1=C(c2ccc(F)c(F)c2)CCCc2cc(O)ccc21)CCC[S+]([O-])CCCC(F)(F)C(F)(F)F (centres unmarked) [Example 24, 8-(3,4-Difluorophenyl)-9-[6-(methyl{3-[(4,4,5,5,5-pentafluoropentyl)sulphinyl]propyl}amino)hexyl]-6,7-dihydro-5H-benzo[7]annulen-3-ol] | 8
9 | CN(CCCCCCC1=C(c2ccc(F)cc2)CCCc2cc(O)ccc21)CCCS(=O)(=O)CCC(F)(F)F [Example 53, 8-(4-Fluorophenyl)-9-[6-(methyl{3-[(3,3,3-trifluoropropyl)sulphonyl]propyl}amino)hexyl]-6,7-dihydro-5H-benzo[7]annulen-3-ol] | 85
10 | CCN(CCCCCCC1=C(c2cc(F)cc(F)c2)CCCc2cc(O)ccc21)CCCS(=O)(=O)CCC(F)(F)F [Example 14, 8-(3,5-Difluorophenyl)-9-[6-(ethyl{3-[(3,3,3-trifluoropropyl)sulphonyl]propyl}amino)hexyl]-6,7-dihydro-5H-benzo[7]annulen-3-ol] | 168
11 | CN(CCCCCCC1=C(c2cc(F)cc(F)c2)CCCc2cc(O)ccc21)CCCS(=O)(=O)CCC(F)(F)C(F)(F)F [Example 3, 8-(3,5-Difluorophenyl)-9-[6-(methyl{3-[(3,3,4,4,4-pentafluorobutyl)sulphonyl]propyl}amino)hexyl]-6,7-dihydro-5H-benzo[7]annulen-3-ol] | 180
12 | COCCCN(CCCCCCC1=C(c2cc(F)cc(F)c2)CCCc2cc(O)ccc21)CCCS(=O)(=O)CCCC(F)(F)C(F)(F)F [Example 16, 8-(3,5-Difluorophenyl)-9-{6-[(3-methoxypropyl){3-[(4,4,5,5,5-pentafluoropentyl)sulphonyl]propyl}amino]hexyl}-6,7-dihydro-5H-benzo[7]annulen-3-ol] | 27
13 | O=S(=O)(CCCN(CCCCCCC1=C(c2ccc(F)cc2)CCCc2c1ccc(O)c2F)CC(F)(F)F)CCCC(F)(F)C(F)(F)F [Example 84, 4-Fluoro-8-(4-fluorophenyl)-9-{6-[{3-[(4,4,5,5,5-pentafluoropentyl)sulphonyl]propyl}(2,2,2-trifluoroethyl)amino]hexyl}-6,7-dihydro-5H-benzo[7]annulen-3-ol] | 252
14 | COC(=O)CCN(CCCCCCC1=C(c2ccc(F)cc2)CCCc2cc(O)ccc21)CCCCS(=O)(=O)CCCC(F)(F)F [Example 83, Methyl-N-{6-[8-(4-fluorophenyl)-3-hydroxy-6,7-dihydro-5H-benzo[7]annulen-9-yl]hexyl}-N-{4-[(4,4,4-trifluorobutyl)sulphonyl]butyl}-beta-alaninate] | 13
15 | O=S(=O)(CCCN(CCCCCCC1=C(c2ccc(F)cc2)CCCc2cc(O)ccc21)Cc1ccc(F)cc1)CCCC(F)(F)C(F)(F)F [Example 58, 9-{6-[(4-Fluorobenzyl){3-[(4,4,5,5,5-pentafluoropentyl)sulphonyl]propyl}amino]hexyl}-8-(4-fluorophenyl)-6,7-dihydro-5H-benzo[7]annulen-3-ol] | 184
16 | COCCN(CCCCCCC1=C(c2ccc(F)c(F)c2)CCCc2cc(O)ccc21)CCCS(=O)(=O)CCCC(F)(F)C(F)(F)F [Example 31, 8-(3,4-Difluorophenyl)-9-{6-[(2-methoxyethyl){3-[(4,4,5,5,5-pentafluoropentyl)sulphonyl]propyl}amino]hexyl}-6,7-dihydro-5H-benzo[7]annulen-3-ol] | 16
17 | CN(CCCCCCC1=C(c2ccc(F)cc2)CCCc2c1ccc(O)c2F)CCCCS(=O)(=O)CCCC(F)(F)C(F)(F)F [Example 43, 4-Fluoro-8-(4-fluorophenyl)-9-[6-(methyl{4-[(4,4,5,5,5-pentafluoropentyl)sulphonyl]butyl}amino)hexyl]-6,7-dihydro-5H-benzo[7]annulen-3-ol] | 20
18 | CN(CCCCCCC1=C(c2ccc(F)cc2F)CCCc2cc(O)ccc21)CCCS(=O)(=O)CCCCC(F)(F)F [Example 129, 8-(2,4-Difluorophenyl)-9-[6-(methyl{3-[(5,5,5-trifluoropentyl)sulphonyl]propyl}amino)hexyl]-6,7-dihydro-5H-benzo[7]annulen-3-ol] | 5
19 | O=S(=O)(CCCCN(CCO)CCCCCCC1=C(c2ccc(F)cc2)CCCc2cc(O)c(F)cc21)CCCC(F)(F)F [Example 104, 2-Fluoro-8-(4-fluorophenyl)-9-{6-[(2-hydroxyethyl){4-[(4,4,4-trifluorobutyl)sulphonyl]butyl}amino]hexyl}-6,7-dihydro-5H-benzo[7]annulen-3-ol] | 7
20 | CN(CCCCCCC1=C(c2cc(F)cc(F)c2)CCCc2cc(O)ccc21)CCCCS(=O)(=O)CCC(F)(F)C(F)(F)F [Example 69, 8-(3,5-Difluorophenyl)-9-[6-(methyl{4-[(3,3,4,4,4-pentafluorobutyl)sulphonyl]butyl}amino)hexyl]-6,7-dihydro-5H-benzo[7]annulen-3-ol] | 19
